Each structure is given as a SMILES string.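 Exposure lasted 48 hours, with cells grown in 96-well plates and compounds tested at five concentrations. GI50 marks 50% less growth. TGI: total growth inhibition.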

The test system of the first test is HOP-62 NSCLC. Put plainly: NCI anticancer screen, dose series, 48 h.
On to `CS(=O)(=O)OCCn1c(=O)n(CCOS(C)(=O)=O)c(=O)n(CCOS(C)(=O)=O)c1=O`, for which the TGI is more than 100 µM.

`c1ccc2c(c1)NC(C1OC3CCCN3C1C1Nc3ccccc3S1)S2` (stereo not given) displayed a TGI of more than 100 µM.

`CC(=O)O[C@]12CCCCCC1C1(O)C(O)CCC[C@H]12` (stereo not given in full) showed a TGI of more than 100 µM.

`CC(C)(C)NC(=O)/C(=C\Sc1ccccc1)c1ccc2c(c1)OCO2` showed a TGI of more than 100 µM.

In turn, `COc1nc(C#CCC(C)O)nc(OC)n1` (stereo not given) gave a TGI of 36.8 µM.

Turning to `Cc1c2c(n(CCc3ccc(Cl)cc3)c1C)NN=C(C#N)S2(=O)=O`, the TGI was more than 100 µM.

`COc1ccc2cc(-c3ccc(-c4ccc(C(=N)N)s4)s3)ccc2c1`: the GI50 was 1.78 µM and the TGI amounted to 3.68 µM.

On to `BrC/C=C/C[P+](c1ccccc1)(c1ccccc1)c1ccccc1`, for which the TGI worked out at 58.2 µM.

In turn, `Cc1cc(=O)c2c([nH]1)NS(=O)(=O)NC2=O` yielded a TGI of more than 100 µM.

Compound `CC12CC(=O)C3C(C(=O)C1)C32C` (stereo not given) registered a TGI of more than 100 µM.

The compound `CC(=O)N/N=C1\NC(=O)C[C@H]2[C@@H]3CC=C4C[C@@H](OC(C)=O)CC[C@]4(C)[C@H]3CC[C@]12C` showed a TGI of 32.5 µM.

With `C=C[C@@H]1C(CO)=CCC2[C@H]1CCC1C(C)(C)C(=O)CC[C@]21C` (stereo not given in full), the TGI is more than 100 µM.

`C/C(CC1C2CCCC1C2)=N\NC(N)=O` (stereo not given) yielded a TGI of more than 100 µM.

For the compound `c1ccc2sc(SCSc3nc4ccccc4s3)nc2c1`, the TGI is more than 100 µM.

Compound `N#CC(C#N)=CNC(=S)c1ccncc1` showed a TGI of more than 100 µM.

`O=C(CCCN1CCC2(CC1)CC(=O)N(N1CCOCC1)C2=O)c1ccccc1`: the TGI is more than 100 µM.

As for `CC(=O)N(C(C)=O)C1=C2c3ccccc3N(S(=O)(=O)c3ccccc3)C2n2c(=O)n(-c3ccccc3)c(=O)n2C1` (stereo not given), the TGI is more than 100 µM.

`Cc1ccccc1C(O)(c1nccn1C)c1nccn1C`: the TGI is more than 100 µM.

With `O=C(NC(Cc1ccc(I)cc1)C(=O)O)c1ccc(I)cc1` (stereo not given), the TGI is more than 100 µM.

Take `O=[N+]([O-])/C(C(Cl)=C(Cl)Cl)=C(\Nc1cccc2cccnc12)SCc1ccccc1`: the TGI was 33.6 µM.

Compound `CCCCC1c2c([nH]c3ccccc23)C2C(=O)N(c3ccc(OC)cc3)C(=O)C2C1CCC` (stereo not given) came in with a TGI of more than 10 µM.

`COc1ccc(C#CC(=O)O)c(OC)c1` had a TGI of more than 100 µM.

In turn, `CSc1cc(Cl)c(C)cc1S(=O)(=O)NC(=O)NNc1ccc(Cl)cc1` had a TGI of more than 100 µM.

In the case of `O=c1c2ccccc2nc2[nH][nH]c(=S)n12`, the TGI is more than 100 µM.

On to `O=S(=O)(O)c1cc2ccc1/C=C\c1ccc(cc1S(=O)(=O)O)N=Nc1ccc(c(S(=O)(=O)O)c1)/C=C\c1ccc(cc1S(=O)(=O)O)N=N2`, for which the TGI is more than 100 µM.

In the case of `COc1ccc(CC(O)CN2CCOCC2)cc1` (stereo not given), the TGI is more than 100 µM.

The compound `N#C/C(=C\c1cc(Br)c(O)c(Br)c1)c1cccnc1` showed a TGI of 97.2 µM.

A further test relates to HOP-92 NSCLC. The test is described as follows: NCI anticancer screen, dose series, 48 h.
The compound `c1ccc2c(c1)NC(C1OC3CCCN3C1C1Nc3ccccc3S1)S2` (stereo not given) showed a TGI of more than 100 µM.

`CC(C)(C)NC(=O)/C(=C\Sc1ccccc1)c1ccc2c(c1)OCO2`: the TGI is 55.1 µM.

Regarding `BrC/C=C/C[P+](c1ccccc1)(c1ccccc1)c1ccccc1`, the TGI was 36.1 µM.

Compound `Cc1cc(=O)c2c([nH]1)NS(=O)(=O)NC2=O` showed a TGI of more than 100 µM.

Take `CC(=O)N/N=C1\NC(=O)C[C@H]2[C@@H]3CC=C4C[C@@H](OC(C)=O)CC[C@]4(C)[C@H]3CC[C@]12C`: the TGI stood at 31.9 µM.

For the compound `C=C[C@@H]1C(CO)=CCC2[C@H]1CCC1C(C)(C)C(=O)CC[C@]21C` (stereo not given in full), the TGI is more than 100 µM.

In turn, `C/C(CC1C2CCCC1C2)=N\NC(N)=O` (stereo not given) gave a TGI of more than 100 µM.

`c1ccc2sc(SCSc3nc4ccccc4s3)nc2c1` showed a TGI of more than 100 µM.

`C=CCNC(=S)/N=C/c1c(O)c2ccccc2oc1=O` registered a TGI of more than 100 µM.

As for `CC(=O)N(C(C)=O)C1=C2c3ccccc3N(S(=O)(=O)c3ccccc3)C2n2c(=O)n(-c3ccccc3)c(=O)n2C1` (stereo not given), the TGI came out at 73.9 µM.

On to `Cc1ccccc1C(O)(c1nccn1C)c1nccn1C`, for which the TGI was more than 100 µM.

As to `O=C(NC(Cc1ccc(I)cc1)C(=O)O)c1ccc(I)cc1` (stereo not given), the TGI is more than 100 µM.

The compound `CCCCC1c2c([nH]c3ccccc23)C2C(=O)N(c3ccc(OC)cc3)C(=O)C2C1CCC` (stereo not given) returned a TGI of 7.86 µM.

Turning to `COc1ccc(C#CC(=O)O)c(OC)c1`, the TGI is more than 100 µM.

`O=c1ccc2cc3ccc4cccc5ccc(c2o1)c3c45` showed a TGI of more than 100 µM.

Consider `O=c1c2ccccc2nc2[nH][nH]c(=S)n12`, for which the TGI was more than 100 µM.

`O=S(=O)(O)c1cc2ccc1/C=C\c1ccc(cc1S(=O)(=O)O)N=Nc1ccc(c(S(=O)(=O)O)c1)/C=C\c1ccc(cc1S(=O)(=O)O)N=N2` gave a TGI of more than 100 µM.

With `COc1ccc(CC(O)CN2CCOCC2)cc1` (stereo not given), the TGI was more than 100 µM.

The subject of the next test is KM12 colon. The test is described as follows: NCI anticancer screen, dose series, 48 h.
As for `CS(=O)(=O)OCCn1c(=O)n(CCOS(C)(=O)=O)c(=O)n(CCOS(C)(=O)=O)c1=O`, the TGI was more than 100 µM.

In turn, `c1ccc2c(c1)NC(C1OC3CCCN3C1C1Nc3ccccc3S1)S2` (stereo not given) yielded a TGI of more than 100 µM.

In the case of `CC(=O)O[C@]12CCCCCC1C1(O)C(O)CCC[C@H]12` (stereo not given in full), the TGI was more than 100 µM.

In turn, `CC(C)(C)NC(=O)/C(=C\Sc1ccccc1)c1ccc2c(c1)OCO2` returned a TGI of more than 100 µM.

Compound `COc1nc(C#CCC(C)O)nc(OC)n1` (stereo not given) yielded a TGI of 82 µM.

For `COCOc1ccc(Cn2c(=O)n(C)c(=O)c3c2ncn3C)cc1[N+](=O)[O-]`, the TGI was more than 100 µM.

The compound `Cc1c2c(n(CCc3ccc(Cl)cc3)c1C)NN=C(C#N)S2(=O)=O` had a TGI of more than 100 µM.

In the case of `COc1ccc2cc(-c3ccc(-c4ccc(C(=N)N)s4)s3)ccc2c1`, the GI50 was 2.06 µM and the TGI is 4.68 µM.

Compound `BrC/C=C/C[P+](c1ccccc1)(c1ccccc1)c1ccccc1` returned a TGI of 14.7 µM.

`Cc1cc(=O)c2c([nH]1)NS(=O)(=O)NC2=O` displayed a TGI of more than 100 µM.

Regarding `CC12CC(=O)C3C(C(=O)C1)C32C` (stereo not given), the TGI was more than 100 µM.

As to `COc1cc([N+](=O)[O-])c(OC)cc1-c1nc2sc(Cl)cn2c1/C=N/Nc1ccccn1`, the GI50 is more than 50 µM and the TGI is more than 50 µM.

`CC(=O)N/N=C1\NC(=O)C[C@H]2[C@@H]3CC=C4C[C@@H](OC(C)=O)CC[C@]4(C)[C@H]3CC[C@]12C`: the TGI was more than 100 µM.

Compound `C=C[C@@H]1C(CO)=CCC2[C@H]1CCC1C(C)(C)C(=O)CC[C@]21C` (stereo not given in full) registered a TGI of more than 100 µM.

`C/C(CC1C2CCCC1C2)=N\NC(N)=O` (stereo not given) displayed a TGI of more than 100 µM.

In turn, `c1ccc2sc(SCSc3nc4ccccc4s3)nc2c1` gave a TGI of more than 100 µM.

Turning to `N#CC(C#N)=CNC(=S)c1ccncc1`, the TGI was more than 100 µM.

The record behind these values is PubChem BioAssay (NCI).
